From the Kinase Knowledgebase extract (Sharma et al. 2016)

target: CDK2 (human) (UniProt P24941); experiment: Enzyme Assay

Compound | Ki [µM]
CCc1cc(Nc2cc(C)[nH]n2)nc(-c2ccc3[nH][nH]c(=O)c3c2)n1 | < 1
Cc1cc(Nc2cc(C)[nH]n2)nc(Nc2ccc3c(=O)[nH][nH]c3c2)n1 | < 1
O=c1[nH][nH]c2ccc(-c3nc(Nc4n[nH]c5cc(=O)n(-c6ccccc6)nc45)c4ccccc4n3)c(C(F)(F)F)c12 | < 1
Cn1cnc(NC(=O)CCCc2ccc3c(=O)[nH][nH]c3c2)c1 | < 1
O=c1[nH][nH]c2cc(Nc3cccc(Nc4nccnn4)c3)ccc12 | < 1
O=c1[nH][nH]c2cc(C(F)(F)F)c(-c3nc4c(c(Nc5n[nH]c6ccc(F)cc56)n3)OCCCC4)cc12 | < 1
Cc1nc(Sc2ccc3c(=O)[nH][nH]c3c2)nc(Nc2cc(C3CC3)[nH]n2)c1C | < 1
O=c1[nH][nH]c2ccc(-c3nc(Nc4cc(-c5cccs5)[nH]n4)c4ccccc4n3)c(C(F)(F)F)c12 | < 1
O=c1[nH][nH]c2cc(NCCCNc3nccnn3)ccc12 | < 1
O=c1[nH][nH]c2cc(NOCCNc3ccccn3)ccc12 | < 1
CSc1n[nH]c(Nc2nc(Nc3ccc4c(=O)[nH][nH]c4c3)ccc2[N+](=O)[O-])n1 | < 1
O=c1[nH][nH]c2cc(SCCCNc3ccccn3)ccc12 | < 1
O=c1[nH][nH]c2cc(Nc3nc(Nc4cc(C5CC5)[nH]n4)c4ccccc4n3)ccc12 | < 1
O=c1[nH][nH]c2cc(Cc3nc(Nc4cc(C5CC5)[nH]n4)c4ccccc4n3)ccc12 | < 1
CC(C)(C)c1cc(Nc2nc(-c3ccc4[nH][nH]c(=O)c4c3C(F)(F)F)nc3ccccc23)n[nH]1 | < 1
O=c1[nH][nH]c2ccc(C3CCCC(Nc4ccccn4)C3)cc12 (stereo not given) | < 1
O=c1[nH][nH]c2cc(OC3CCC(Nc4ccccn4)C3)ccc12 (stereo not given) | < 1
Cn1cnc(NC2CCC(Oc3ccc4c(=O)[nH][nH]c4c3)C2)c1 (stereo not given) | < 1
O=c1[nH][nH]c2cc(Oc3cc4ccccc4c(Nc4n[nH]c5ccccc45)n3)ccc12 | < 1
O=c1[nH][nH]c2cc(SCCONc3cc(C4CC4)[nH]n3)ccc12 | < 1
Cc1ccc2nc(Nc3ccc4c(=O)[nH][nH]c4c3)nc(Nc3cc(C4CC4)[nH]n3)c2n1 | < 1
Cc1cc(Nc2cc(N3CCN(C)CC3)nc(Oc3ccc4c(=O)[nH][nH]c4c3)n2)n[nH]1 | < 1
Cc1cc(Nc2cc(CN(C)C)nc(Sc3ccc4c(=O)[nH][nH]c4c3)n2)n[nH]1 | < 1
O=c1[nH][nH]c2cc(OC(CCNc3cc(C4CC4)[nH]n3)Cc3ccccc3)ccc12 (stereo not given) | < 1

Compound | Ki [µM]
O=c1[nH][nH]c2ccc(-c3nc(Nc4n[nH]c5cc(=O)n(-c6ccccc6)nc45)c4ccccc4n3)cc12 | < 1
CN(C)c1nc(Nc2ccc3c(=O)[nH][nH]c3c2)nc(Nc2cc(C3CC3)[nH]n2)n1 | < 1
CCc1cc(Nc2nc(-c3ccncc3)nc(-c3ccc4[nH][nH]c(=O)c4c3)n2)n[nH]1 | < 1
Cn1cnc(NC2COCC(Oc3ccc4c(=O)[nH][nH]c4c3)C2)c1 (stereo not given) | < 1
O=c1[nH][nH]c2cc(Cl)c(-c3cc(N4CCCCC4)nc(Nc4n[nH]c5ccccc45)n3)cc12 | < 1
Cc1cnc(Sc2ccc3c(=O)[nH][nH]c3c2)nc1Nc1cc(C2CC2)[nH]n1 | < 1
O=c1[nH][nH]c2cc(SC(CCNc3cc(C4CC4)[nH]n3)Cc3ccccc3)ccc12 (stereo not given) | < 1
O=c1[nH][nH]c2cc(CSc3cc(Nc4n[nH]c5ccccc45)ccn3)ccc12 | < 1
O=C(CC(=O)Nc1nccnn1)Cc1ccc2c(=O)[nH][nH]c2c1 | < 1
COCc1cc(Nc2cc(C)[nH]n2)nc(COc2ccc3[nH][nH]c(=O)c3c2)n1 | < 1
O=c1[nH][nH]c2cc(Oc3nc(Nc4cc(C5CC5)[nH]n4)cc(N4CCOCC4)n3)ccc12 | < 1
CNc1cnc(-c2ccc3[nH][nH]c(=O)c3c2C(F)(F)F)nc1Nc1n[nH]c2ccccc12 | < 1
O=c1[nH][nH]c2cc(Sc3nccc(Nc4cc(C5CC5)[nH]n4)n3)ccc12 | < 1
O=c1[nH][nH]c2cc(Nc3cccc(Nc4cc(C5CC5)[nH]n4)c3)ccc12 | < 1
O=c1[nH][nH]c2ccc(-c3nc4c(c(Nc5n[nH]c6ccc(F)cc56)n3)CCNC4)c(C(F)(F)F)c12 | < 1
Cc1cc(Nc2nc(Sc3ccc4c(=O)[nH][nH]c4c3)nc3cc(NO)ccc23)n[nH]1 | < 1
Cc1cnc(NCCC(=O)Cc2ccc3c(=O)[nH][nH]c3c2)s1 | < 1
O=c1[nH][nH]c2cc(OCC3CCCC3Nc3nccnn3)ccc12 (stereo not given) | < 1
O=c1[nH][nH]c2cc(NCCONc3nccnn3)ccc12 | < 1
O=c1[nH][nH]c2cc(OCCONc3ccccn3)ccc12 | < 1
CCCCc1cc(Nc2nc(-c3ccc4[nH][nH]c(=O)c4c3)nc(C3CC3)n2)n[nH]1 | < 1
Cc1cc(Nc2nc(C3(c4ccc5c(=O)[nH][nH]c5c4)CC3)nc3ccccc23)n[nH]1 | < 1
O=c1[nH][nH]c2cc(NC(CCNc3ccccn3)Cc3ccccc3)ccc12 (stereo not given) | < 1
O=c1[nH][nH]c2cc(COCc3cc4ccccc4c(Nc4cc(C5CC5)[nH]n4)n3)ccc12 | < 1

Compound | Ki [µM]
Cc1nc(-c2ccc3[nH][nH]c(=O)c3c2C(F)(F)F)nc(Nc2n[nH]c3ccccc23)c1C | < 1
O=C1Cc2nc(-c3ccc4[nH][nH]c(=O)c4c3C(F)(F)F)nc(Nc3n[nH]c4ccccc34)c2CN1 | < 1
O=c1[nH][nH]c2ccc(-c3nc(Nc4cc(C5CC5)[nH]n4)c4ccccc4n3)c(C(F)(F)F)c12 | < 1
O=c1[nH][nH]c2cc(Cl)c(-c3cc4c(c(Nc5n[nH]c6ccccc56)n3)CCCC4)cc12 | < 1
Cc1cnc(NC(=O)CCOc2ccc3c(=O)[nH][nH]c3c2)s1 | < 1
O=c1[nH][nH]c2cc(Cl)c(-c3cc(C4CCCCC4)nc(Nc4n[nH]c5ccccc45)n3)cc12 | < 1
Cc1cc(Nc2cc(C)[nH]n2)nc(Cc2ccc3c(=O)[nH][nH]c3c2)n1 | < 1
COCC(C)(C)c1cc(Nc2cc(C)[nH]n2)nc(Sc2ccc3c(=O)[nH][nH]c3c2)n1 | < 1
CN(C)CCNc1nnc(Nc2n[nH]c3ccccc23)cc1-c1ccc2[nH][nH]c(=O)c2c1Cl | < 1
O=c1[nH][nH]c2cc(Cl)c(-c3nc(Nc4n[nH]c5ccc(F)cc45)c4cnoc4n3)cc12 | < 1
O=C(CCCc1ccc2c(=O)[nH][nH]c2c1)Nc1ccccn1 | < 1
Cc1cc(Nc2cccc(Sc3ccc4c(=O)[nH][nH]c4c3)n2)n[nH]1 | < 1
CCc1cc(Nc2cc(C)[nH]n2)nc(COc2ccc3[nH][nH]c(=O)c3c2)n1 | < 1
O=c1[nH][nH]c2ccc(C3CCCC(Nc4nccnn4)C3)cc12 (stereo not given) | < 1
O=c1[nH][nH]c2ccc(-c3nc4c(c(Nc5n[nH]c6c(F)cc(F)cc56)n3)CCCC4)c(C(F)(F)F)c12 | < 1
O=c1[nH][nH]c2cc(Nc3cccc(Nc4n[nH]c5ccccc45)n3)ccc12 | < 1
CC(C)NC(=O)c1cc(Nc2nc(-c3ccc4[nH][nH]c(=O)c4c3)nc3ccccc23)n[nH]1 | < 1
O=c1[nH][nH]c2cc(Nc3nc(Nc4cc(-c5ccco5)[nH]n4)c4ccccc4n3)ccc12 | < 1
O=c1[nH][nH]c2cc(CCCCNc3ccccn3)ccc12 | < 1
Cc1cc(Nc2nc(NCc3ccc4c(=O)[nH][nH]c4c3)cc3ccccc23)n[nH]1 | < 1
CN1CCN(c2cccc3c(Nc4n[nH]c5c(F)cccc45)nc(-c4ccc5[nH][nH]c(=O)c5c4C(F)(F)F)nc23)CC1 | < 1
O=c1[nH][nH]c2cc(OCCC(Nc3ccccn3)c3ccccc3)ccc12 (stereo not given) | < 1
CC(C)c1cc(Nc2nc(Nc3ccc4c(=O)[nH][nH]c4c3)nc3ccc(-c4ccccc4)cc23)n[nH]1 | < 1
Cn1cnc(NCCC(=O)Cc2ccc3c(=O)[nH][nH]c3c2)c1 | < 1

Compound | Ki [µM]
O=c1[nH][nH]c2cc(CCC3CCCC3Nc3cc(C4CC4)[nH]n3)ccc12 (stereo not given) | < 1
O=c1[nH][nH]c2cc(Oc3cc(Nc4cc(C5CC5)[nH]n4)c4ccccc4n3)ccc12 | < 1
Cc1nc(-c2ccc3[nH][nH]c(=O)c3c2C(F)(F)F)nc(Nc2n[nH]c(C(C)C)n2)c1C | < 1
CC(=O)N1CCC(c2cc(Nc3n[nH]c4ccccc34)nc(-c3ccc4[nH][nH]c(=O)c4c3C(F)(F)F)n2)CC1 | < 1
Cc1cc(Nc2cc(-c3cccc([N+](=O)[O-])c3)nc(Nc3ccc4c(=O)[nH][nH]c4c3)n2)n[nH]1 | < 1
O=C(CCNc1cc(C2CC2)[nH]n1)Cc1ccc2c(=O)[nH][nH]c2c1 | < 1
O=c1[nH][nH]c2cc(C(F)(F)F)c(-c3cc(-c4ccccc4)cc(Nc4n[nH]c5ccccc45)n3)cc12 | < 1
O=c1[nH][nH]c2cc(OC3COCC(Nc4nccnn4)C3)ccc12 (stereo not given) | < 1
Cc1cnc(NC(=O)CC(=O)Nc2ccc3c(=O)[nH][nH]c3c2)s1 | < 1
Cc1cc(Nc2nc(CSc3ccc4[nH][nH]c(=O)c4c3)nc3c2CCCC3)n[nH]1 | < 1
O=c1[nH][nH]c2cc(C(F)(F)F)c(-c3nc(Nc4n[nH]c5c(F)cc(F)cc45)c4nccnc4n3)cc12 | < 1
Cc1cc(Nc2nc(COc3ccc4[nH][nH]c(=O)c4c3)nc3c2CCCCC3)n[nH]1 | < 1
O=c1[nH][nH]c2ccc(-c3cc4ccccc4c(Nc4n[nH]c5c(F)cc(F)cc45)n3)c(C(F)(F)F)c12 | < 1
O=C(CCNc1nccnn1)Nc1ccc2c(=O)[nH][nH]c2c1 | < 1
Cc1cc(Nc2cc(N3CCCCC3)nc(SCc3ccc4[nH][nH]c(=O)c4c3)n2)n[nH]1 | < 1
O=c1[nH][nH]c2cc(OC3CCCC(Nc4cc(C5CC5)[nH]n4)C3)ccc12 (stereo not given) | < 1
COc1cc(-c2cc(Nc3cc(C)[nH]n3)nc(Nc3ccc4c(=O)[nH][nH]c4c3)n2)cc(OC)c1OC | < 1
Cc1cc(Nc2nc(Nc3ccc4c(=O)[nH][nH]c4c3)nc3c2CCN(Cc2ccccc2)C3)n[nH]1 | < 1
O=c1[nH][nH]c2cc(OCC3CCCC(Nc4nccnn4)C3)ccc12 (stereo not given) | < 1
O=c1[nH][nH]c2cc(C(F)(F)F)c(-c3nc(Nc4cc(C5CC5)[nH]n4)nc(-c4ccncc4)n3)cc12 | < 1
O=c1[nH][nH]c2ccc(-c3nc(Nc4n[nH]c(-c5ccccc5)c4-c4ccccc4)c4ccccc4n3)c(C(F)(F)F)c12 | < 1
O=c1[nH][nH]c2cc(CC(CCNc3cc(C4CC4)[nH]n3)Cc3ccccc3)ccc12 (stereo not given) | < 1
CCc1cc(Nc2cnnc(-c3ccc4[nH][nH]c(=O)c4c3)n2)n[nH]1 | < 1
